{"source": "patent US20100317672A1", "about": "“Monomaleate Monohydrate Salt of a 5HT1A Receptor Antagonist” (GLAXO GROUP LIMITED, priority 2008, published 2010)", "key": {"[1]": {"experiment": "hygroscopicity of the dihydrochloride salt (stated in words, no method)", "format": "physicochemical", "conditions": "shows variable stoichiometry"}, "[2]": {"experiment": "solubility of the free base (stated in words, no method)", "format": "physicochemical", "conditions": "said to be therefore not readily bioavailable"}, "[3]": {"target": "T1, 5-HT1A receptor (Homo sapiens, UniProt P08908)", "T1 sequence (P08908 1-422)": "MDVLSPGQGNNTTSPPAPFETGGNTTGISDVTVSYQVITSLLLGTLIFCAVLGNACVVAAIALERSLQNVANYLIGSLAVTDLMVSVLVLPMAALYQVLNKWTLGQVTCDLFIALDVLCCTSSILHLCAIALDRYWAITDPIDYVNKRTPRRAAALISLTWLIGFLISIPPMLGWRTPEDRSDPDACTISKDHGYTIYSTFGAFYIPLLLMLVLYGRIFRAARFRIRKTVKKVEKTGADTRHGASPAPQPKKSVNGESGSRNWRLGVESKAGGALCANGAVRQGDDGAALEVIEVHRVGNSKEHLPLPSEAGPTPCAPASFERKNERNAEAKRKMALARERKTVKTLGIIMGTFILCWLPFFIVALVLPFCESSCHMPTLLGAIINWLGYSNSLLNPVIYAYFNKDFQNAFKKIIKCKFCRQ", "experiment": "antagonism of the 5-HT1A receptor (stated in words, no method)", "format": "biochemical"}, "[4]": {"target": "5-HT1B receptor (Homo sapiens, UniProt P28222)", "sequence (P28222 whole entry)": "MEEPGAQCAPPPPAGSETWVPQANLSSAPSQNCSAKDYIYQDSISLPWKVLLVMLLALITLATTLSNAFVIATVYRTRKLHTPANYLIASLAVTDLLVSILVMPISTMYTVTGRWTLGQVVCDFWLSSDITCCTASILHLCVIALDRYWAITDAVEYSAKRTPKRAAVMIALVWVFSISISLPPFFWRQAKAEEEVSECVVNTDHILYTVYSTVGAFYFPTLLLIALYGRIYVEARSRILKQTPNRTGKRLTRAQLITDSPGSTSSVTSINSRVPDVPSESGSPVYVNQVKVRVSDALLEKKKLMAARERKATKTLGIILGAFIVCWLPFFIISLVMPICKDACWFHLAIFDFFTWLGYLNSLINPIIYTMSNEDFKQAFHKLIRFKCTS", "experiment": "antagonism of the 5-HT1B receptor, selectivity comparison (stated in words, no method)", "format": "biochemical", "conditions": "better antagonist of 5-HT1A than of 5-HT1B"}}, "note": "Where a name gives a salt, the structure may show the parent alone."}
{"smiles": "Cc1ccc2c(N3CCN(CCc4c(C)ccc5c4CCc4c(C(N)=O)ncn4-5)CC3)cccc2n1", "note": "[dihydrochloride salt, 7-methyl-6-{2-[4-(2-methyl-5-quinolinyl)-1-piperazinyl]ethyl}-4,5-dihydroimidazo[1,5-a]quinoline-3-carboxamide]", "values": [{"measurement": "hygroscopicity", "setting": "[1]", "value": "hygroscopic"}]}
{"smiles": "Cc1ccc2c(N3CCN(CCc4c(C)ccc5c4CCc4c(C(N)=O)ncn4-5)CC3)cccc2n1", "note": "[free base, 7-methyl-6-{2-[4-(2-methyl-5-quinolinyl)-1-piperazinyl]ethyl}-4,5-dihydroimidazo[1,5-a]quinoline-3-carboxamide]", "values": [{"measurement": "solubility", "setting": "[2]", "value": "insoluble"}]}
{"smiles": "Cc1ccc2c(N3CCN(CCc4c(C)ccc5c4CCc4c(C(N)=O)ncn4-5)CC3)cccc2n1.O.O=C(O)/C=C\\C(=O)O", "note": "[salt of the invention, 7-methyl-6-{2-[4-(2-methyl-5-quinolinyl)-1-piperazinyl]ethyl}-4,5-dihydroimidazo[1,5-a]quinoline-3-carboxamide monomaleate monohydrate]", "values": [{"measurement": "antagonist of the 5-HT1A receptor", "setting": "[3]", "value": "effective antagonist"}, {"measurement": "selectivity for the 5-HT1A receptor over the 5-HT1B receptor", "setting": "[4]", "value": "high selectivity"}]}
